Assays:
Test in all cases: relative viability (nuclei count vs DMSO), 5 days (fraction); higher = more cells survive
Halofuginone + AZD7762 = compound: O=C(C[C@H]1NCCC[C@@H]1O)Cn1cnc2cc(Br)c(Cl)cc2c1=O (racemic) [Halofuginone] + NC(=O)Nc1cc(-c2cccc(F)c2)sc1C(=O)N[C@H]1CCCNC1 [AZD7762] (partner 0.2 µM)
Method in brief: (§1)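 Lung cancer cell lines were seeded in 1536-well plates and dosed by pin tool the next day, with either a single drug or a fixed anchor-drug dose combined with five library-drug doses (not always all listed) spaced in √10 steps. Five days later, one step fixed the cells and stained their nuclei (final 0.05% Triton X-100, 1% formaldehyde, 1 ug/ml Hoechst), and nuclei were counted on 4× images. Relative viability is the nuclei count in treated wells divided by the count in vehicle wells, and each value is the median of duplicate plates.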

Decitabine + Palbociclib = compound: Nc1ncn([C@H]2C[C@H](O)[C@@H](CO)O2)c(=O)n1 [Decitabine] + CC(=O)c1c(C)c2cnc(Nc3ccc(N4CCNCC4)cn3)nc2n(C2CCCC2)c1=O [Palbociclib] (partner 0.5 µM)
Method in brief: as §1

Decitabine + Vorinostat = compound: Nc1ncn([C@H]2C[C@H](O)[C@@H](CO)O2)c(=O)n1 [Decitabine] + O=C(CCCCCCC(=O)Nc1ccccc1)NO [Vorinostat] (partner 1 µM)
Method in brief: as §1

Cediranib + Alpelisib = compound: COc1cc2c(Oc3ccc4[nH]c(C)cc4c3F)ncnc2cc1OCCCN1CCCC1 [Cediranib] + Cc1nc(NC(=O)N2CCC[C@H]2C(N)=O)sc1-c1ccnc(C(C)(C)C(F)(F)F)c1 [Alpelisib] (partner 2 µM)
Method in brief: as §1

Cell Line	relative viability (Halofuginone + AZD7762; first compound 0.001 µM)	relative viability (Halofuginone + AZD7762; first compound 0.003162 µM)	relative viability (Halofuginone + AZD7762; first compound 0.01 µM)	relative viability (Halofuginone + AZD7762; first compound 0.03162 µM)	relative viability (Halofuginone + AZD7762; first compound 0.1 µM)	relative viability (Decitabine + Palbociclib; first compound 0.04 µM)	relative viability (Decitabine + Palbociclib; first compound 0.1265 µM)	relative viability (Decitabine + Palbociclib; first compound 0.4 µM)	relative viability (Decitabine + Palbociclib; first compound 1.265 µM)	relative viability (Decitabine + Palbociclib; first compound 4 µM)	relative viability (Decitabine + Vorinostat; first compound 0.04 µM)	relative viability (Decitabine + Vorinostat; first compound 0.1265 µM)	relative viability (Decitabine + Vorinostat; first compound 0.4 µM)	relative viability (Decitabine + Vorinostat; first compound 1.265 µM)	relative viability (Decitabine + Vorinostat; first compound 4 µM)	relative viability (Cediranib + Alpelisib; first compound 0.04 µM)	relative viability (Cediranib + Alpelisib; first compound 0.4 µM)	relative viability (Cediranib + Alpelisib; first compound 1.265 µM)	relative viability (Cediranib + Alpelisib; first compound 4 µM)	relative viability (Cediranib + Alpelisib; first compound 0.1265 µM)
HCC-827	0.242	0.183	0.217	0.2	0.253	0.231	0.311	0.294	0.262	0.181	0.143	0.32	0.303	0.243	0.287	1.06	0.957	0.985	0.926	
HOP-62	0.573	0.676	0.47	0.599	0.327	0.326	0.327	0.195	0.136	0.273	0.348	0.316	0.161	0.123	0.11	1.16	0.74	0.96	1.18	
IA-LM											0.853	0.403	0.393	0.236	0.164	0.845	0.928	0.592	0.655	0.959
LC-2-ad	0.841	0.878	0.831	0.885	0.576	0.498	0.538	0.48	0.365	0.463	0.642	0.635	0.608	0.365	0.406	0.994	0.809	0.86	0.635	0.97
NCI-H520						0.22	0.23	0.204	0.17	0.184	0.622	0.627	0.413	0.397	0.296	1.05	0.838	0.795	0.846	
NCI-H522	0.969	0.948	0.974	0.852	0.813	0.97	0.803	0.817	0.634	0.533	0.898	0.684	0.562	0.505	0.54					
NCI-H596	1.19	1.18	1.1	0.95	0.722						0.613	0.618	0.553	0.51	0.507	0.489	0.478	0.509	0.577	0.481
NCI-H661						0.489	0.468	0.417	0.348	0.361	0.806	0.602	0.54	0.467	0.485	0.633	0.631	0.522	0.588	1.03
NCI-H1299																1.09	1.01	1.04	1.14	1.03
NCI-H1563																0.988	0.967	0.949	0.761	0.898
NCI-H1648	0.742	0.608	0.631	0.854	0.694	0.275	0.246	0.296	0.287	0.31	0.384	0.386	0.305	0.249	0.315					
NCI-H1650						0.262	0.353	0.248	0.255	0.293	0.358	0.367	0.318	0.195	0.215					
NCI-H1703	0.119	0.121	0.121	0.13	0.151											0.264	0.218	0.205	0.169	0.337
NCI-H1792	0.684	0.722	0.585	0.541	0.234	0.753	0.76	0.646	0.595	0.512						0.762	0.648	0.718	0.589	0.939
NCI-H2009						0.43	0.231	0.116	0.193	0.275	0.474	0.446	0.356	0.285	0.335	1.18	1.09	1.16	1.14	1.13
NCI-H2023						0.329	0.36	0.287	0.23	0.157	0.305	0.389	0.23	0.142	0.119	0.667	0.58	0.559	0.667	0.706
NCI-H2228						0.385	0.463	0.215	0.204	0.169	0.221	0.304	0.16	0.169	0.179	0.955	0.791	0.929	0.826	0.85
NCI-H2342	0.458	0.536	0.507	0.487	0.588	0.641	0.54	0.548	0.463	0.508	0.755	0.798	0.728	0.542	0.522					
SK-LU-1						0.39	0.342	0.325	0.345	0.303	0.611	0.65	0.443	0.453	0.433	0.753	0.958	0.933	1.01	1.2
SK-MES-1						0.315	0.304	0.303	0.277	0.319	0.812	0.739	0.529	0.301	0.319	0.835	0.8	0.924	1.02	0.916
SW 900	0.677	0.564		0.621	0.46	0.457	0.506	0.314	0.305	0.348	0.333	0.42	0.33	0.193	0.286					
SW 1573						0.429	0.407	0.367	0.228	0.251	0.515	0.601	0.458	0.325	0.206	0.586	0.655	0.619	0.79	0.834
